Each structure is given as a SMILES string. Where “and” joins values, the source holds several entries; their conditions need not be identical. Identical values can stand only once.

The source of these data is PMC6788984, “High-potency ligands for DREADD imaging and activation in rodents and monkeys” (Nature Communications, 2019).

Experiment [1] deals with 5-HT receptors. Nature of the experiment: Binding and enzyme target profile screen (Eurofins). The settings on record: competitive binding screen. The protocol: These experiments were performed by an outside vendor (Eurofins, France). […] In each experiment, the respective reference compound was tested concurrently with the test compound to assess the assay reliability. […] Following incubation, the samples were filtered rapidly under vacuum through glass fiber filters presoaked in a buffer and rinsed several times with an ice-cold buffer using a 48-sample or 96-sample cell harvester. The filters were counted for radioactivity in a scintillation counter using a scintillation cocktail.

The target of experiment [2] is hM3Dq (Homo sapiens, UniProt P20309, A239G/Y149C). The experiment in a line: DREADD-assisted metabolic mapping (DREAMM), [18F]FDG PET in D1-hM3Dq mice. It is filed as in vivo, mouse. Details: 026220; host or cells: mouse brain, dopamine D1 receptor-expressing neurons (transgene). The following applies: 0.1 mg kg-1 IP. The method, then:
(§1) Mice (D1-hM3Dq, D1-hM4Di or WT littermates, see above) were habituated to experimenter handling and fasted 16 h before the experiment. On the day of the experiment, mice received an IP injection of vehicle (1 ml kg^−1) and were placed back into their home cages. Ten minutes later, mice were injected (IP) with 11 MBq of 2-deoxy-2-[^18F]fluoro-D-glucose (FDG, Cardinal Health) and placed back into their home cages. After 30 min, mice were anesthetized with 1.5% isoflurane, placed on a custom-made bed of a nanoScan small animal PET/CT scanner (Mediso Medical Imaging Systems) and scanned for 20 min on a static acquisition protocol, followed by a CT scan. […] Voxel-based repeated measures with Student’s t test comparing baseline to drug were performed, and the resulting parametric images were filtered for statistically significant (p < 0.05) clusters larger than 100 contiguous voxels. All statistical parametric mapping analyses were performed using Matlab R2016 (Mathworks) and SPM12 (University College London).

For experiment [3], the target named is T1, hM4Di (Homo sapiens, UniProt P08173, A203G/Y113C).
T1 sequence (P08173 1-479 Y113C/A203G): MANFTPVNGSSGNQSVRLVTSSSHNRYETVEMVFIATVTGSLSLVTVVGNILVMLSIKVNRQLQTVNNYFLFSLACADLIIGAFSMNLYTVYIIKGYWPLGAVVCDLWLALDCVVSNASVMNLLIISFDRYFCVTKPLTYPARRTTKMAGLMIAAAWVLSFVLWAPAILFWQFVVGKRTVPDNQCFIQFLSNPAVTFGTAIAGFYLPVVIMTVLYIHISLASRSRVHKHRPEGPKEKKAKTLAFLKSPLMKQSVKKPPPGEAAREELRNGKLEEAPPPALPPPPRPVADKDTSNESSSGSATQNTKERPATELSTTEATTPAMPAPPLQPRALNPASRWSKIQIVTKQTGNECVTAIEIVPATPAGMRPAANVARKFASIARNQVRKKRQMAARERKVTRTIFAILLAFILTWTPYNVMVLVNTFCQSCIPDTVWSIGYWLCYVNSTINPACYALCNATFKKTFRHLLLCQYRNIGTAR
Nature of the experiment: DREADD-assisted metabolic mapping (DREAMM), [18F]FDG PET in D1-hM4Di mice. The experiment is classed as in vivo, mouse. The arrangement: 026219; host or cells: mouse brain, dopamine D1 receptor-expressing neurons (transgene). The settings on record: 0.1 mg kg-1 IP. The protocol: as §1

Experiment [4] concerns the target T1, hM4Di. The experiment in a line: In vivo electrophysiology: ChrimsonR light-evoked responses in LA of mice expressing hM4Di in MGM terminals. The settings on record: 0.1 mg kg-1 IP. The arrangement: 026219; host or cells: mouse brain, dopamine D1 receptor-expressing neurons (transgene); species or system mouse. The method, then: Mice were purchased from Janvier Labs and stored in grouped cages (maximun 4 per cage) with ad libitum access to food and water, and in a 12 h light/dark cycle (lights on at 7:00 a.m.). All the experiments were performed in accordance to the national Danish law for the use of laboratory animals and approved by local authorities.
For AAV injection, mice were anaesthetized with Isoflurane and placed in a stereotaxic holder (Narishige, Japan). A trephine hole was drilled above the MGM (from bregma, AP 3.1 mm, ML 1.8 mm). Several injections of a mixture of ssAAV-8/2-hSyn1-hM4D(Gi)_mCherry-WPRE-hGHp(A) and ssAAV-8/2-hSyn1-oChIEF_ChrimsonR_mCitrine-WPRE-SV40pA (in a 1:4 viral particle ratio) were performed sequentially in different locations (AP 3.05 mm, ML 1.75 mm, DV 3.2 and 3.5 mm; second location AP 3.2 mm, ML 1.85 mm, DV 3.3 and 3.6 mm) so that a total of 4 injections of 0.5 µL were made to distribute the virus evenly through the desired location. Injections were made using a pressurized picospritzer and a pulled glass pipette. After viral injection, animals were kept for 4 weeks to ensure maximum virus expression through axon terminals.
For recording experiments, animals were anesthetized with […] urethane (i.p.), injected with 0.1 ml lidocaine (s.c.) in the incision points, and placed in a stereotaxic holder (Narishige, Japan). A trephine was drilled above the LA (from bregma, AP 1.5 mm, ML 3.1 mm) and the 32 channel opto-electrode was lowered whilst stimulating until a maximum response was located (DV 4 ± 0.2 mm). Body temperature was maintained constant at 37 °C through a feedback-regulated heating pad. Before recording, tissue was left for 10–20 mins for accommodation. Input–output test curves were recorded for both intensity and pulse length 30 min before and 1 h after drug injections using 1 ms-long pulses at 0.33 Hz (450 nm, 110 mA light intensity, ~14 mW, see Supplementary Fig. 10 Panel A). […]

The target in experiment [5] is T1, hM4Di. Nature of the experiment: [11C]clozapine PET DREADD occupancy in AAV-DREADD mice, hM4Di. The settings on record: 0.1 mg kg-1 IP, individual values, listed as J52.
Description: Animals were anesthetized with isoflurane or a mix of ketamine/xylazine and prepped on a stereotaxic apparatus (Kopf, Germany). […] When indicated, animals were pretreated with vehicle or the indicated drug 10 min before the injection of the PET radiotracer. Total acquisition time was 60 min.
In all cases, the PET data were reconstructed and corrected for dead-time and radioactive decay. All qualitative and quantitative assessments of PET images were performed using the PMOD software environment (PMOD Technologies, Zurich Switzerland). Binding potential BPND (a relative measure of specific binding) was calculated using a reference tissue model using the cerebellum as a reference tissue in rodents. In macaques, the kinetic data were fitted to a two-tissue compartment model and the concentration of parent in plasma was used as an input function, then the volume of distribution ratios compared to cerebellum were calculated to establish BPND. In all cases, the dynamic PET images were coregistered to MRI templates and time-activity curves were generated using predefined volumes of interest (macaques) or manually drawn in rodents and the described analyses were performed. Receptor occupancy was calculated using the formula: occupancy = (BPND^0 − BPND^Drug)/BPND^0 × 100, where BPND^0 is the binding potential of the baseline condition and BPND^Drug the binding potential when the animals were pretreated with the drug.

Chain of hM3Dq (P20309 whole entry Y149C/A239G): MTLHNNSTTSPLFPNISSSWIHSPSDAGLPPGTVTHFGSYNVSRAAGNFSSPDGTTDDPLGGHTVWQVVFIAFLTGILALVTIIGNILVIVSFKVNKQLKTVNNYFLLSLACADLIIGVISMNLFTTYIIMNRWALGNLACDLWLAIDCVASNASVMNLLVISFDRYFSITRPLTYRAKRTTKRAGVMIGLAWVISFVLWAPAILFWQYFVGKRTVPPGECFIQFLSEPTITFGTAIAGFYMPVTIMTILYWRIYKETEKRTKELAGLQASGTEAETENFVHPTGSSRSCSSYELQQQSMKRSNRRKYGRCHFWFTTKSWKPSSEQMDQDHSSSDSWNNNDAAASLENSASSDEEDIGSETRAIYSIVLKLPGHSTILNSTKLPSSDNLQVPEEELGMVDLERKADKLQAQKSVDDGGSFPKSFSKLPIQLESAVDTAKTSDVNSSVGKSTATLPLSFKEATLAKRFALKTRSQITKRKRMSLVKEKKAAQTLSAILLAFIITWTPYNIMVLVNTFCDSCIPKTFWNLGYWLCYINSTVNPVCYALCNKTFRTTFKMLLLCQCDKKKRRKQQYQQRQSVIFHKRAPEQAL

For `CCN1CCN(C2=Nc3cc(Cl)ccc3Nc3c(F)cccc32)CC1` [JHU37160, 8-Chloro-11-(4-ethylpiperazin-1-yl)-4-fluoro-5H-dibenzo[b,e][1,4]diazepine], the “affinity at 5-HT receptors relative to clozapine” value in experiment [1] is “lower affinity than clozapine”. Besides, the “brain metabolism ([18F]FDG)” value is “decreased metabolism” in experiment [2] and “increased metabolism” in experiment [3]. For the same compound, the “light-evoked response, % of baseline (maximal inhibition)” value in experiment [4] (30 min after injection) is 19 ± 2 % of baseline. In addition, in experiment [4] (~10 min), the “inhibition of ChrimsonR-induced terminal activation” value was 60%. The “light-evoked response, % of baseline” value in experiment [4] (~10 min) is 36 ± 9 % of baseline.

Take `CCN1CCN(C2=Nc3cc(Cl)ccc3Nc3cccc(F)c32)CC1` [JHU37152, 8-Chloro-11-(4-ethylpiperazin-1-yl)-1-fluoro-5H-dibenzo[b,e][1,4]diazepine]: the “affinity at 5-HT receptors relative to clozapine” value in experiment [1] is reported as “lower affinity than clozapine”. Besides, in experiment [5], the “displacement of in vivo [11C]clozapine binding, hM4Di” value is -5.675 and 34.4851 and 23.8214.
